From ChEMBL document CHEMBL1156475, “Efficient inhibition of class A and class D beta-lactamases by Michaelis complexes” (J Biol Chem, 2007)
pIC50: −log10 of the molar value.

Columns and labels:
[1] = Inhibition of beta lactamase SHV1
[2] = Inhibition of beta lactamase TEM1
[3] = Inhibition of beta lactamase P99
[4] = target: Beta-lactamase OXA-1 (Escherichia coli) (UniProt P13661); assay: Inhibition of Escherichia coli beta lactamase OXA-1
Beta-lactamase OXA-1 (Escherichia coli), sequence (P13661 whole entry): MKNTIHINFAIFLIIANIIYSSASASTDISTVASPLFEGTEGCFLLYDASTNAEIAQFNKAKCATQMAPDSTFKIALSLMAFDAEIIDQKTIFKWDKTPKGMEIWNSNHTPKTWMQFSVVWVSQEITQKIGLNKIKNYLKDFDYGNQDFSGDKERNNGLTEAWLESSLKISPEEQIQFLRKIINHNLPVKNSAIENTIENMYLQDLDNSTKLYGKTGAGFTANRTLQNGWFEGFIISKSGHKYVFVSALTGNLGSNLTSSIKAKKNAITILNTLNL

Compound	Kinact [1] [nM]	pIC50 [2]	pIC50 [3]	Kinact [4] [µM]
C[C@]1(COC(=O)Cc2ccccc2)[C@H](C(=O)O)N2C(=O)/C(=C/c3ccccn3)[C@H]2S1(=O)=O	42	7.40	9.00	1
C[C@]1(Cn2ccnn2)[C@H](C(=O)O)N2C(=O)C[C@H]2S1(=O)=O	330	–	–	–
